Measured values as given in patent publication US20050222200A1, “AMIDE DERIVATIVES AS ION CHANNEL LIGANDS AND PHARMACEUTICAL COMPOSITIONS AND METHODS OF USING THE SAME” (Renovis, Inc., priority 2003, published 2005).

The compounds below were run against T1, VR1 (Homo sapiens, UniProt Q8NER1) (assay: High throughput calcium imaging assay of VR1 antagonists (Fura2, Flex Station, 96 well)). Details: Table 1 activity class.
T1 construct: expressed in transfected cells; host or cells: 293 cells ("293 neurons" [sic])
Assay type: cell-based
Note: test concentration or dose not given here.

T1 sequence (Q8NER1 whole entry, species assumed): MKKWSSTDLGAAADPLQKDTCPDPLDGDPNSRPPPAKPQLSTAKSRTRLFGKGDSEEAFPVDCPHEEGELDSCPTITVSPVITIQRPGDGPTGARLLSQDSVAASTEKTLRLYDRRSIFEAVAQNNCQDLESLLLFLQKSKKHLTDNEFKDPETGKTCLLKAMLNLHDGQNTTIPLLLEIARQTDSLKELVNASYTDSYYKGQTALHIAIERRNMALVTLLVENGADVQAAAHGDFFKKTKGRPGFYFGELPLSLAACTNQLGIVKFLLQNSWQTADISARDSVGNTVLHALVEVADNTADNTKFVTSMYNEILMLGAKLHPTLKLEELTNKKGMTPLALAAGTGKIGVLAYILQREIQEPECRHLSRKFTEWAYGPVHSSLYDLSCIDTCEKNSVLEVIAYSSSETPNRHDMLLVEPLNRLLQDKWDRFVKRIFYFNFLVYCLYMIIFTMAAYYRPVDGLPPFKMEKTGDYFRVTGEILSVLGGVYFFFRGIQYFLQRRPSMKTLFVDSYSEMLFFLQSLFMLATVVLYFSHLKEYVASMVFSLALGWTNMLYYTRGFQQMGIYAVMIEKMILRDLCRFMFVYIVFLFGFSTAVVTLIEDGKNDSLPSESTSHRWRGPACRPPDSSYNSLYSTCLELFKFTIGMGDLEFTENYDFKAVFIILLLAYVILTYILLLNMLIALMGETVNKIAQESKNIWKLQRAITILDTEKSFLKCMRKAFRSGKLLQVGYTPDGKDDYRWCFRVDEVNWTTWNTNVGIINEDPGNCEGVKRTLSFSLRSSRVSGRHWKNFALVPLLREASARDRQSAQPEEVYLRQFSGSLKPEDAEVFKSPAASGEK

Compound | inhibition of calcium ion influx induced by capsaicin stimulation
CC(C)(C)/C=C/c1ccc(C(=O)NCCc2ccccc2Cl)cc1 [Compound 11] | ++++ (compound exhibited 75% or greater inhibition of calcium ion influx induced by capsaicin stimulation)
CC(C)(C)/C=C/c1ccc(C(=O)NC2CCC(C(C)(C)C)CC2)cc1 (centres unmarked) [Compound 12] | + (compound exhibited 0-25% inhibition of calcium ion influx induced by capsaicin stimulation)
CC(C)(C)/C=C/c1ccc(C(=O)NCc2ccccc2)cc1 [Compound 13] | + (compound exhibited 0-25% inhibition of calcium ion influx induced by capsaicin stimulation)
CCCNC(=O)c1ccc(/C=C/C(C)(C)C)cc1 [Compound 14] | + (compound exhibited 0-25% inhibition of calcium ion influx induced by capsaicin stimulation)
COc1ccc(NC(=O)c2ccc(/C=C/C(C)(C)C)cc2)cc1 [Compound 15] | + (compound exhibited 0-25% inhibition of calcium ion influx induced by capsaicin stimulation)
CC(C)(C)/C=C/c1ccc(C(=O)NCC2CCCO2)cc1 (centres unmarked) [Compound 16] | + (compound exhibited 0-25% inhibition of calcium ion influx induced by capsaicin stimulation)
CC(C)(C)/C=C/c1ccc(C(=O)NCc2ccc3c(c2)OCO3)cc1 [Compound 17] | + (compound exhibited 0-25% inhibition of calcium ion influx induced by capsaicin stimulation)
CC(C)(C)/C=C/c1ccc(C(=O)NCCc2ccc(S(C)(=O)=O)cc2)cc1 [Compound 20] | + (compound exhibited 0-25% inhibition of calcium ion influx induced by capsaicin stimulation)
COc1ccc(CCNC(=O)c2ccc(/C=C/C(C)(C)C)cc2)cc1OC [Compound 24] | + (compound exhibited 0-25% inhibition of calcium ion influx induced by capsaicin stimulation)
CC(C)(C)/C=C/c1ccc(C(=O)NC(C)(C)c2ccccc2)cc1 [Compound 26] | + (compound exhibited 0-25% inhibition of calcium ion influx induced by capsaicin stimulation)
CC(C)(C)/C=C/c1ccc(C(=O)NCc2cccs2)cc1 [Compound 29] | + (compound exhibited 0-25% inhibition of calcium ion influx induced by capsaicin stimulation)
CC(C)(C)/C=C/c1ccc(C(=O)Nc2ccccc2C#N)cc1 [Compound 30] | ++ (compound exhibited 25-50% inhibition of calcium ion influx induced by capsaicin stimulation)
COc1ccccc1NC(=O)c1ccc(/C=C/C(C)(C)C)cc1 [Compound 31] | + (compound exhibited 0-25% inhibition of calcium ion influx induced by capsaicin stimulation)
CC(C)(C)/C=C/c1ccc(C(=O)Nc2ccccc2Cl)cc1 [Compound 33] | + (compound exhibited 0-25% inhibition of calcium ion influx induced by capsaicin stimulation)
COc1ccc(CNC(=O)c2ccc(/C=C/C(C)(C)C)cc2)cc1OC [Compound 35] | + (compound exhibited 0-25% inhibition of calcium ion influx induced by capsaicin stimulation)
COc1ccc(NC(=O)c2ccc(/C=C/C(C)(C)C)cc2)cc1Cl [Compound 37] | + (compound exhibited 0-25% inhibition of calcium ion influx induced by capsaicin stimulation)
CC(C)(C)/C=C/c1ccc(C(=O)Nc2cccc(C#N)c2)cc1 [Compound 38] | + (compound exhibited 0-25% inhibition of calcium ion influx induced by capsaicin stimulation)
CC(C)(C)/C=C/c1ccc(C(=O)Nc2ccccc2CCO)cc1 [Compound 39] | ++++ (compound exhibited 75% or greater inhibition of calcium ion influx induced by capsaicin stimulation)
CC(C)(C)/C=C/c1ccc(C(=O)Nc2ccc(C(C)(C)C)cc2)cc1 [Compound 40] | +++ (compound exhibited 50-75% inhibition of calcium ion influx induced by capsaicin stimulation)
CC(C)c1ccc(NC(=O)c2ccc(/C=C/C(C)(C)C)cc2)cc1 [Compound 41] | ++ (compound exhibited 25-50% inhibition of calcium ion influx induced by capsaicin stimulation)
CCCCc1ccc(NC(=O)c2ccc(/C=C/C(C)(C)C)cc2)cc1 [Compound 42] | + (compound exhibited 0-25% inhibition of calcium ion influx induced by capsaicin stimulation)
CC(C)(C)/C=C/c1ccc(C(=O)Nc2ccc(C3CCCCC3)cc2)cc1 [Compound 43] | + (compound exhibited 0-25% inhibition of calcium ion influx induced by capsaicin stimulation)
COc1cc(NC(=O)c2ccc(/C=C/C(C)(C)C)cc2)cc(C(F)(F)F)c1 [Compound 44] | ++++ (compound exhibited 75% or greater inhibition of calcium ion influx induced by capsaicin stimulation)
Cc1ccc2[nH]c(=O)c3ccc(/C=C/C(C)(C)C)cc3c2c1 [Compound 45] | ++++ (compound exhibited 75% or greater inhibition of calcium ion influx induced by capsaicin stimulation)

Compound | inhibition of calcium ion influx induced by capsaicin stimulation
CC(C)(C)/C=C/c1ccc(C(=O)Nc2ccc3c(c2)OCO3)cc1 [Compound 47] | ++++ (compound exhibited 75% or greater inhibition of calcium ion influx induced by capsaicin stimulation)
Cc1cc(C)nc(NC(=O)c2ccc(/C=C/C(C)(C)C)cc2)c1 [Compound 48] | ++ (compound exhibited 25-50% inhibition of calcium ion influx induced by capsaicin stimulation)
CC(C)(C)/C=C/c1ccc(C(=O)NCc2ccncc2)cc1 [Compound 49] | ++++ (compound exhibited 75% or greater inhibition of calcium ion influx induced by capsaicin stimulation)
CC(C)(C)/C=C/c1ccc(C(=O)Nc2ccncc2)cc1 [Compound 52] | ++++ (compound exhibited 75% or greater inhibition of calcium ion influx induced by capsaicin stimulation)
CC(C)(C)/C=C/c1ccc(C(=O)Nc2cccnc2)cc1 [Compound 53] | ++++ (compound exhibited 75% or greater inhibition of calcium ion influx induced by capsaicin stimulation)
CC(C)(C)/C=C/c1ccc(C(=O)Nc2cc[nH]n2)cc1 [Compound 54] | + (compound exhibited 0-25% inhibition of calcium ion influx induced by capsaicin stimulation)
CC(C)(C)/C=C/c1ccc(C(=O)Nc2nccs2)cc1 [Compound 55] | + (compound exhibited 0-25% inhibition of calcium ion influx induced by capsaicin stimulation)
CC(C)(C)/C=C/c1ccc(C(=O)NC2CCC(Cc3ccccc3)CC2)cc1 (centres unmarked) [Compound 56] | + (compound exhibited 0-25% inhibition of calcium ion influx induced by capsaicin stimulation)
CC(C)(C)/C=C/c1ccc(C(=O)NCCN2CCNCC2)cc1 [Compound 60] | + (compound exhibited 0-25% inhibition of calcium ion influx induced by capsaicin stimulation)
CN(C)c1cccc(NC(=O)c2ccc(/C=C/C(C)(C)C)cc2)c1 [Compound 61] | ++++ (compound exhibited 75% or greater inhibition of calcium ion influx induced by capsaicin stimulation)
CCN(CC)c1ccc(NC(=O)c2ccc(/C=C/C(C)(C)C)cc2)cc1 [Compound 62] | ++++ (compound exhibited 75% or greater inhibition of calcium ion influx induced by capsaicin stimulation)
Cc1ccnc(NC(=O)c2ccc(/C=C/C(C)(C)C)cc2)c1 [Compound 64] | + (compound exhibited 0-25% inhibition of calcium ion influx induced by capsaicin stimulation)
CN1CCC(NC(=O)c2ccc(/C=C/C(C)(C)C)cc2)CC1 [Compound 65] | + (compound exhibited 0-25% inhibition of calcium ion influx induced by capsaicin stimulation)
CC(C)(C)/C=C/c1ccc(C(=O)Nc2ccc3[nH]ccc3c2)cc1 [Compound 66] | ++ (compound exhibited 25-50% inhibition of calcium ion influx induced by capsaicin stimulation)
CC(C)(C)/C=C/c1ccc(C(=O)Nc2ccncn2)cc1 [Compound 67] | + (compound exhibited 0-25% inhibition of calcium ion influx induced by capsaicin stimulation)
Cc1cccnc1NC(=O)c1ccc(/C=C/C(C)(C)C)cc1 [Compound 68] | +++ (compound exhibited 50-75% inhibition of calcium ion influx induced by capsaicin stimulation)
CC(C)(C)/C=C/c1ccc(C(=O)Nc2ccc(Br)cn2)cc1 [Compound 69] | + (compound exhibited 0-25% inhibition of calcium ion influx induced by capsaicin stimulation)
CC(C)(C)/C=C/c1ccc(C(=O)Nc2ccc(C(F)(F)F)cn2)cc1 [Compound 70] | + (compound exhibited 0-25% inhibition of calcium ion influx induced by capsaicin stimulation)
CC(C)(C)/C=C/c1ccc(C(=O)Nc2ncc(C(F)(F)F)cc2Cl)cc1 [Compound 71] | + (compound exhibited 0-25% inhibition of calcium ion influx induced by capsaicin stimulation)
CCc1ccnc(NC(=O)c2ccc(/C=C/C(C)(C)C)cc2)c1 [Compound 72] | + (compound exhibited 0-25% inhibition of calcium ion influx induced by capsaicin stimulation)
CC(C)(C)/C=C/c1ccc(C(=O)Nc2ccc(Cl)nc2)cc1 [Compound 74] | +++ (compound exhibited 50-75% inhibition of calcium ion influx induced by capsaicin stimulation)
COc1ccc(NC(=O)c2ccc(/C=C/C(C)(C)C)cc2)cn1 [Compound 75] | ++ (compound exhibited 25-50% inhibition of calcium ion influx induced by capsaicin stimulation)
CC(C)(C)/C=C/c1ccc(C(=O)Nc2ccnc(Cl)c2)cc1 [Compound 76] | ++++ (compound exhibited 75% or greater inhibition of calcium ion influx induced by capsaicin stimulation)
